These results are taken from patent publication US7935688B2, “Vitamin D-like compound” (Chugai Seiyaku Kabushiki Kaisha, priority 2005, dated 2011).

This assay deals with osteocalcin production in MG-63 cells. Nature of the assay: Osteocalcin production in MG-63 cells (Gla-type Osteocalcin EIA). The settings on record: (EC50 value of 1,25(OH)2D3/EC50 value of each compound)×100; eight hours exposure, then four days culture. Type of assay: cell-based, human. Here is the method:
mg-63 was obtained from Institute for Fermentation, Osaka as a human osteoblast-like cell line. MG-63 cells were maintained and cultured in a MEM medium (Minimum essential medium; pH 7.0; Invitrogen Corporation, Carlsbad, Calif., USA) containing 5% fetal bovine serum (FBS; HyClone, Logan, Utah, USA).
MG-63 cells were adjusted to a density of 4.0×10^4 cells/mL, plated in a 96-well plate at 200 μL per well, and cultured under conditions of 37° C. and 5% carbon dioxide for 24 hours.
After removing the medium, MEM containing 5% charcoal/dextran treated FBS (DCC-FBS; Hyclone, Logan, Utah, USA) was added at 180 μL/well. The test substance (1.0×10^−3 mol/L) was diluted with dimethyl sulfoxide (DMSO) to 1.0×10^−4 mol/L, 1.0×10^−5 mol/L, 1.0×10^−6 mol/L, 1.0×10^−7 mol/L and 1.0×10^−8 mol/L. 1,25(OH)2D3 was used as a positive control. Like the test substance, 1,25(OH)2D3 was diluted with DMSO. 0.02 mL of the positive control and the test substance diluted 100-fold with MEM containing 5% DCC-FCS was added to each well of the 96-well plate, so that the final drug concentration was 1.0×10^−6 mol/L to 1.0×10^−11 mol/L. Thereafter, the cells were cultured under conditions of 37° C. and 5% carbon dioxide for eight hours.
After culturing for eight hours, the medium was removed, and MEM containing 5% DCC-FBS was added at 0.2 mL per well. The cells were cultured under conditions of 37° C. and 5% carbon dioxide for four days, and the medium was recovered. The medium was stored at −80° C. until osteocalcin measurement.
The Gla-type Osteocalcin EIA kit (Takara Bio Inc., Tokyo, Japan) was used for measurement of osteocalcin. Measurement was carried out using a microplate reader (Model 3550, Bio-Rad Laboratories, Inc., Hercules, Calif., USA) at a wavelength of 450 nm, and the results were analyzed by Microplate Manager III (Bio-Rad Laboratories, Inc., ver. 1.57).
The median effective concentration (EC50) was calculated from the osteocalcin concentration. Potency of induction of each compound was calculated as a ratio of EC50 of 1,25(OH)2D3 to EC50 of the compound. The relation between diseases and induction of osteocalcin production is described in Lancet (1984 May 19), 1 (8386), 1091-3; Steroids 66, 159-170 (2001); and Journal of Steroid Biochemistry & Molecular Biology 89-90, 269-271 (2004), for example.
The osteocalcin production level in MG-63 cells (%) was calculated by the formula: (EC50 value of 1,25(OH)2D3/EC50 value of each compound)×100.
With `CCC(CC)(c1ccc(/C=C/C2(O)CCCCC2)c(C)c1)c1ccc(-c2ccc(CC(=O)O)cn2)c(C)c1` [Example 91, {6-[4-(1-ethyl-1-{4-[(E)-2-(1-hydroxy-cyclohexyl)-vinyl]-3-methyl-phenyl}-propyl)-2-methyl-phenyl]-pyridin-3-yl}-acetic Acid], the “Osteocalcin production level in MG-63 cells (%)” value is 1074%.

Take `CCC(CC)(c1ccc(/C=C/C2(O)CCCC2)c(C)c1)c1ccc(-c2ccc(CC(=O)O)cc2)c(C)c1` [Example 53, (E)-[4′-(1-Ethyl-1-{4-[2-(1-hydroxy-cyclopentyl)-vinyl]-3-methyl-phenyl}-propyl)-2′-methyl-biphenyl-4-yl]-acetic Acid]: the “Osteocalcin production level in MG-63 cells (%)” value came to 772%.

On to `CCC(CC)(c1ccc(/C=C/C2(O)CCCC2)c(C)c1)c1ccc(-c2ccc(CC(=O)O)cn2)c(C)c1` [Example 85, {6-[4-(1-ethyl-1-{4-[(E)-2-(1-hydroxy-cyclopentyl)-vinyl]-3-methyl-phenyl}-propyl)-2-methyl-phenyl]-pyridin-3-yl}-acetic Acid], for which the “Osteocalcin production level in MG-63 cells (%)” value stood at 765%.

Regarding `CCC(CC)(c1ccc(OCC(O)CO)c(C)c1)c1ccc(OCC(O)C(C)(C)C)c(C)c1` (stereo not shown) [LG190178, reference compound], the “Osteocalcin production level in MG-63 cells (%)” value is 185%.

Turning to `CCC(CC)(c1ccc(/C=C/C(O)(C(F)(F)F)C(F)(F)F)c(C)c1)c1ccc(-c2cncc(CC(=O)O)c2)c(C)c1` [Example 75, [5-(4-{1-ethyl-1-[3-methyl-4-((E)-4,4,4-trifluoro-3-hydroxy-3-trifluoromethyl-1-butenyl)-phenyl]-propyl}-2-methyl-phenyl)-pyridin-3-yl]-acetic Acid], the “Osteocalcin production level in MG-63 cells (%)” value turned out to be 1283%.

`CCC(CC)(c1ccc(C#CC2(O)CCCC2)c(C)c1)c1ccc(-c2ccc(CC(=O)O)c(F)c2)c(C)c1` [Example 93, (4′-{1-ethyl-1-[4-(1-hydroxy-cyclopentylethynyl)-3-methyl-phenyl]-propyl}-3-fluoro-2′-methyl-biphenyl-4-yl)-acetic Acid]: the “Osteocalcin production level in MG-63 cells (%)” value is 487%.

Consider `CCC(CC)(c1ccc(-c2cncc(CC(=O)O)c2)cc1)c1ccc(CCC2(O)CCCC2)c(C)c1` [Example 150, {5-[4-(1-ethyl-1-{4-[2-(1-hydroxy-cyclopentyl)-ethyl]-3-methyl-phenyl}-propyl)-phenyl]-pyridin-3-yl}-acetic Acid], for which the “Osteocalcin production level in MG-63 cells (%)” value was 645%.

`CCC(CC)(c1ccc(CCC(O)C(C)(C)C)c(C)c1)c1ccc(-c2cccc(CC(=O)O)c2)c(C)c1` (single isomer, unassigned) [Example 14, (4′-{1-ethyl-1-[4-(3-hydroxy-4,4-dimethyl-pentyl)-3-methyl-phenyl]-propyl}-2′-methyl-biphenyl-3-yl)-acetic Acid]: the “Osteocalcin production level in MG-63 cells (%)” value is given as 161%.

Consider `CCC(CC)(c1ccc(C#CC(O)(C(F)(F)F)C(F)(F)F)c(C)c1)c1ccc(-c2ccc(CC(=O)O)c(F)c2)c(C)c1` [Example 78, (4′-{1-ethyl-1-[3-methyl-4-(4,4,4-trifluoro-3-hydroxy-3-trifluoromethyl-1-butynyl)-phenyl]-propyl}-3-fluoro-2′-methyl-biphenyl-4-yl)-acetic Acid], for which the “Osteocalcin production level in MG-63 cells (%)” value amounted to 617%.

`CCC(CC)(c1ccc(C#CC(O)(C(F)(F)F)C(F)(F)F)c(C)c1)c1ccc(-c2ccc(CC(=O)O)cc2)c(C)c1` [Example 45, (4′-{1-ethyl-1-[3-methyl-4-(4,4,4-trifluoro-3-hydroxy-3-trifluoromethyl-1-butynyl)-phenyl]-propyl}-2′-methyl-biphenyl-4-yl)-acetic Acid]: the “Osteocalcin production level in MG-63 cells (%)” value was 546%.

As to `CCC(CC)(c1ccc(/C=C/C(O)(C(F)(F)F)C(F)(F)F)c(C)c1)c1ccc(-c2ccc(CC(=O)O)c(Cl)c2)c(C)c1` [Example 73, (3-chloro-4′-{1-ethyl-1-[3-methyl-4-((E)-4,4,4-trifluoro-3-hydroxy-3-trifluoromethyl-1-butenyl)-phenyl]-propyl}-2′-methyl-biphenyl-4-yl)-acetic Acid], the “Osteocalcin production level in MG-63 cells (%)” value amounted to 1595%.

Regarding `CCC(CC)(c1ccc(/C=C/C(O)(C(F)(F)F)C(F)(F)F)c(C)c1)c1ccc(-c2ccc(CC(=O)O)cc2)c(C)c1` [Example 46, (4′-{1-ethyl-1-[3-methyl-4-((E)-4,4,4-trifluoro-3-hydroxy-3-trifluoromethyl-1-butenyl)-phenyl]-propyl}-2′-methyl-biphenyl-4-yl)-acetic Acid], the “Osteocalcin production level in MG-63 cells (%)” value is on record as 2233%.

With `CCC(CC)(c1ccc(/C=C/C2(O)CCCCC2)c(C)c1)c1ccc(-c2ccc(CC(=O)O)cc2)c(C)c1` [Example 56, (E)-[4′-(1-ethyl-1-{4-[2-(1-hydroxy-cyclohexyl)-vinyl]-3-methyl-phenyl}-propyl)-2′-methyl-biphenyl-4-yl]-acetic Acid], the “Osteocalcin production level in MG-63 cells (%)” value turned out to be 1379%.

For the compound `CCC(CC)(c1ccc(CCC(O)C(C)(C)C)c(C)c1)c1ccc(-c2ccc(CC(=O)O)cn2)c(C)c1` (single isomer, unassigned) [Example 23, [6-(4-{1-ethyl-1-[4-(3-hydroxy-4,4-dimethyl-pentyl)-3-methyl-phenyl]-propyl}-2-methyl-phenyl)-pyridin-3-yl]-acetic Acid], the “Osteocalcin production level in MG-63 cells (%)” value is given as 3264%.

Consider `CCC(CC)(c1ccc(/C=C/C2(O)CCCCC2)c(C)c1)c1ccc(-c2ccc(CC(=O)O)c(F)c2)c(C)c1` [Example 88, [4′-(1-ethyl-1-{4-[(E)-2-(1-hydroxy-cyclohexyl)-vinyl]-3-methyl-phenyl}-propyl)-3-fluoro-2′-methyl-biphenyl-4-yl]-acetic Acid], for which the “Osteocalcin production level in MG-63 cells (%)” value was 4562%.

Take `CCC(CC)(c1ccc(-c2cncc(CC(=O)O)c2)cc1)c1ccc(C#CC2(O)CCCC2)c(C)c1` [Example 148, [5-(4-{1-ethyl-1-[4-(1-hydroxy-cyclopentylethynyl)-3-methyl-phenyl]-propyl}-phenyl)-pyridin-3-yl]-acetic Acid]: the “Osteocalcin production level in MG-63 cells (%)” value worked out at 1022%.

For `CCC(CC)(c1ccc(CCC(O)C(C)(C)C)c(C)c1)c1ccc(-c2ccc(CC(=O)O)c(Cl)c2)c(C)c1` (stereo not shown) [Example 61, (4′-{1-ethyl-1-[4-(3-hydroxy-4,4-dimethyl-pentyl)-3-methyl-phenyl]-propyl}-3-chloro-2′-methyl-biphenyl-4-yl)-acetic Acid], the “Osteocalcin production level in MG-63 cells (%)” value was found to be 956%.

With `CCC(CC)(c1ccc(/C=C/C2(O)CCCCC2)c(C)c1)c1ccc(-c2ccc(CC(=O)O)c(Cl)c2)c(C)c1` [Example 90, [3-chloro-4′-(1-ethyl-1-{4-[(E)-2-(1-hydroxy-cyclohexyl)-vinyl]-3-methyl-phenyl}-propyl)-2′-methyl-biphenyl-4-yl]-acetic Acid], the “Osteocalcin production level in MG-63 cells (%)” value stood at 1604%.

In the case of `CCC(CC)(c1ccc(C#CC2(O)CCCCC2)c(C)c1)c1ccc(-c2ccc(CC(=O)O)c(F)c2)c(C)c1` [Example 97, (4′-{1-ethyl-1-[4-(1-hydroxy-cyclohexylethynyl)-3-methyl-phenyl]-propyl}-3-fluoro-2′-methyl-biphenyl-4-yl)-acetic Acid], the “Osteocalcin production level in MG-63 cells (%)” value is 533%.

Consider `CCC(CC)(c1ccc(/C=C/C(O)(C(F)(F)F)C(F)(F)F)c(C)c1)c1ccc(-c2ccc(CC(=O)O)cn2)c(C)c1` [Example 74, [6-(4-{1-ethyl-1-[3-methyl-4-((E)-4,4,4-trifluoro-3-hydroxy-3-trifluoromethyl-1-butenyl)-phenyl]-propyl}-2-methyl-phenyl)-pyridin-3-yl]-acetic Acid], for which the “Osteocalcin production level in MG-63 cells (%)” value is reported as 1848%.

With `CCC(CC)(c1ccc(-c2cncc(CC(=O)O)c2)cc1)c1ccc(OCC(O)C(C)(C)C)c(C)c1` (stereo not shown) [Example 146, [5-(4-{1-ethyl-1-[4-(2-hydroxy-3,3-dimethyl-butoxy)-3-methyl-phenyl]-propyl}-phenyl)-pyridin-3-yl]-acetic Acid], the “Osteocalcin production level in MG-63 cells (%)” value turned out to be 3721%.

For the compound `CCC(O)(/C=C/c1ccc(C(CC)(CC)c2ccc(-c3ccc(CC(=O)O)cc3)c(C)c2)cc1C)CC` [Example 22, (E)-(4′-{1-ethyl-1-[4-(3-ethyl-3-hydroxy-1-pentenyl)-3-methyl-phenyl]-propyl}-2′-methyl-biphenyl-4-yl)-acetic Acid], the “Osteocalcin production level in MG-63 cells (%)” value came to 1044%.
